In data set [1] the target is T1, purified porcine dipeptidylpeptidase IV (Sus scrofa, UniProt P22411).
T1 construct: purchased Sigma (Poole, Dorset, UK)
Briefly: DPP IV degradation studies of fatty acid derivatised GIP analogues. It counts as in vitro ADME. The method, then:
DPP IV degradation studies. GIP and fatty acid derivatised GIP analogues were incubated at 37° C. with purified porcine dipeptidylpeptidase IV (5 mU in 50 mmol/l triethanolamine-HCl; pH 7.8) for 0, 2, 4, 8 and 24 hours (final peptide concentration 2 mmol/l). The reactions were subsequently terminated by addition of 10% (v/v) TFA/water and the reaction products separated using HPLC. […] HPLC peak area data were used to calculate % intact peptide remaining throughout the incubation.

The test system of a further data set is BRIN-BD11 cells. The data set can be described thus: Insulin release from clonal pancreatic BRIN-BD11 cells (Example 6). The settings on record: 5.6 mmol/l glucose, 20 minutes incubation. It counts as cell-based. As for the experimental part: Cells and cell culture. Chinese hamster lung (CHL) fibroblasts stably transfected with the human GIP receptor (Gremlich, S. et al., 1995, Diabetes 44: 1202-1208) were cultured in DMEM tissue culture medium containing 10% (v/v) FBS, 1% (v/v) antibiotics (100 U/ml penicillin, 0.1 mg/ml streptomycin). Clonal pancreatic BRIN-BD11 cells (McClenaghan, N. H. et al., 1996, Diabetes 45: 1132-1140) were cultured using RPMI-1640 culture medium containing 10% (v/v) FBS, 1% (v/v) antibiotics (100 U/ml penicillin, 0.1 mg/ml streptomycin) and 11.1 mmol/l glucose. Cells were maintained at 37° C. in an atmosphere of 5% CO2 and 95% air using an LEEC incubator (Laboratory Technical Engineering, Nottingham, UK).
Insulin-release studies were carried out using clonal pancreatic BRIN-BD11 cells as described previously (O'Harte, F. P. M. et al., 2002, Diabetologia 45: 1281-1291). Briefly, BRIN-BD11 cells were seeded into 24-well plates at a density of 10^5 cells per well, and allowed to attach overnight at 37° C. Acute tests for insulin release were preceded by 40 minutes pre-incubation at 37° C. in 1.0 ml Krebs Ringer bicarbonate buffer supplemented with 1.1 mmol/l glucose. Test incubations were performed in the presence of 5.6 mmol/l glucose with a range of concentrations (10^−13 to 10^−6 mol/l) of GIP and GIP analogues. After 20 minutes incubation, the buffer was removed from each well and aliquots (200 μl) used for measurement of insulin.

The subject of data set [2] is ob/ob mice. Briefly: Acute metabolic and dose-response effects with glucose in 18 h fasted ob/ob mice. The conditions noted are these: for overall glucose excursion (glucose AUC) compared to glucose alone: 25 nmoles/kg i.p. with glucose 18 mmoles/kg, 0-60 min; for AUC glucose and insulin in dose-response study: 6.25, 12.5 and 25 nmoles/kg with glucose. Format: in vivo, mouse. As for the experimental part:
(§1) Animals. Obese diabetic (ob/ob) mice derived from the colony maintained at Aston University, UK were used at 12-17 weeks of age. The genetic background and characteristics of the colony used have been outlined in detail elsewhere (Bailey, C. J. et al., 1982, Int. J. Obesity 6:11-21; Gault, V. A. et al., 2003, J. Endocrinol. 176: 133-141). Animals were housed in an air-conditioned room at 22±2° C. with a 12 hours light: 12 hours dark cycle. Drinking water and standard rodent maintenance diet (Trouw Nutrition, Cheshire, UK) were freely available. All test solutions were administered by i.p. injection in a final volume of 5 ml/kg bw. Blood was collected from the cut tip of the tail vein of conscious mice into chilled fluoride/heparin microcentrifuge tubes immediately prior to injection and at the times indicated in the Figures. Plasma was separated using a Beckman microcentrifuge (Beckman Instruments, UK) at 13,000 g for 30 second and stored at −20° C. prior to glucose and insulin determinations. All animal experiments were carried out in accordance with the UK Animals (Scientific Procedures) Act 1986.
(§2) Metabolic and dose-response effects of GIP and N-AcGIP(LysPAL) analogues (at 6.25-25 nmoles/kg bw) following glucose administration (18 mmoles/kg bw) were examined in mice fasted for 18 hours. […] Food intake and body weight were recorded daily. Plasma glucose and insulin concentrations were monitored at 2-6 day intervals. At 14 days, groups of animals were used to evaluate intraperitoneal glucose tolerance (18 mmoles/kg) and insulin sensitivity (50 U/kg). In a separate series, two experimental protocols were employed to examine the possibility of GIP receptor desensitization after 14 days treatment. […] At the end of the 14-day treatment period, pancreatic tissues were excised for measurement of insulin following extraction with 5 ml/g ice-cold acid ethanol (75% ethanol, […], 1.5% HCl). Whole blood was taken for determination of glycated hemoglobin.
(§3) Biochemical analyses. Plasma glucose was assayed by an automated glucose oxidase procedure (Stevens, J. F., 1971, Clin. Chem. Acta 32:199-201) using a Beckman Glucose Analyser II (Beckman, Galway, Ireland). Plasma insulin was determined by dextran-charcoal RIA as described previously (Flatt, P. R. et al., 1981, Diabetologia 20: 573-577). Glycated hemoglobin was determined using cation-exchange columns (Sigma, Poole, Dorset, UK) with measurement of absorbance (415 nm) in wash and eluting buffers using a VersaMax microplate spectrophotometer (Molecular Devices, Wokingham, Berkshire, UK).
(§4) Statistics. Results are expressed as mean±SEM. Data were compared using the unpaired Student's t-test. Where appropriate, data were compared using repeated measures ANOVA or one-way ANOVA, followed by the Student-Newman-Keuls post hoc test. Incremental areas under plasma glucose and insulin curves (AUC) were calculated using a computer-generated program employing the trapezoidal rule (Burington, R. S., 1973, Handbook of Mathematical Tables and Formulae, McGraw-Hill, New York) with baseline subtraction.

Data set [3] has as its system ob/ob mice. Briefly: Once daily i.p. injection for 14 days in ob/ob mice. It counts as in vivo, mouse. The settings on record: for body weight / food intake / non-fasting plasma insulin: 14 days; for plasma insulin response to glucose (AUC) / glucose tolerance: after 14 daily injections; for glucose tolerance: i.p. glucose 18 mmoles/kg; for insulin sensitivity: after 14 days, insulin 50 U/kg i.p. As for the experimental part:
as §1, §2, §3, §4

Molecules are shown by their SMILES.

T1 sequence (P22411 whole entry): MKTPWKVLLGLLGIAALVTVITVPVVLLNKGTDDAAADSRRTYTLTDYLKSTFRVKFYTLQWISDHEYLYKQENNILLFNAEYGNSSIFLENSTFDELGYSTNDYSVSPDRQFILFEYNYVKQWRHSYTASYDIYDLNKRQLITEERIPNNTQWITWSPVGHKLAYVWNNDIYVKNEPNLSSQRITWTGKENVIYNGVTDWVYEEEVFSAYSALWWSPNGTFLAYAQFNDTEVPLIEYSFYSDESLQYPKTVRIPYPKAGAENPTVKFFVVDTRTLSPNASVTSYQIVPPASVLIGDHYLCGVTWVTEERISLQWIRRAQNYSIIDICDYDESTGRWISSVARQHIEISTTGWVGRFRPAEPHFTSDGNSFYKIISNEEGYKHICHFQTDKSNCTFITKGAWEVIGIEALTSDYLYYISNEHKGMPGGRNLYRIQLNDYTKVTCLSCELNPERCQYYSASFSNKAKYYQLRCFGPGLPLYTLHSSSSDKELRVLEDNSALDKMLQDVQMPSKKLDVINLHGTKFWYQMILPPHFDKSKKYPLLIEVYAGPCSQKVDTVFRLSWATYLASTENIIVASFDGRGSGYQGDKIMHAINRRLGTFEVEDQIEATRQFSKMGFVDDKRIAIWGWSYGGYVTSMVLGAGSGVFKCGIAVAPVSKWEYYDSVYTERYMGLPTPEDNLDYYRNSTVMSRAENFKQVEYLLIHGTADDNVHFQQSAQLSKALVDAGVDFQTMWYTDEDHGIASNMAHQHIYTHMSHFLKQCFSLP

For `CC[C@H](C)[C@H](NC(=O)[C@H](CO)NC(=O)[C@H](Cc1ccc(O)cc1)NC(=O)[C@H](CC(=O)O)NC(=O)[C@H](CO)NC(=O)[C@@H](NC(=O)[C@H](Cc1ccccc1)NC(=O)[C@@H](NC(=O)CNC(=O)[C@H](CCC(=O)O)NC(=O)[C@H](C)NC(=O)[C@@H](N)Cc1ccc(O)cc1)[C@@H](C)O)[C@@H](C)CC)C(=O)N[C@@H](C)C(=O)N[C@@H](CCSC)C(=O)N[C@@H](CC(=O)O)C(=O)N[C@@H](CCCCN)C(=O)N[C@H](C(=O)N[C@@H](Cc1c[nH]cn1)C(=O)N[C@@H](CCC(N)=O)C(=O)N[C@@H](CCC(N)=O)C(=O)N[C@@H](CC(=O)O)C(=O)N[C@@H](Cc1ccccc1)C(=O)N[C@H](C(=O)N[C@@H](CC(N)=O)C(=O)N[C@@H](Cc1c[nH]c2ccccc12)C(=O)N[C@@H](CC(C)C)C(=O)N[C@@H](CC(C)C)C(=O)N[C@@H](C)C(=O)N[C@@H](CCC(N)=O)C(=O)N[C@@H](CCCCN)C(=O)NCC(=O)N[C@@H](CCCCN)C(=O)N[C@@H](CCCCN)C(=O)N[C@@H](CC(N)=O)C(=O)N[C@@H](CC(=O)O)C(=O)N[C@@H](Cc1c[nH]c2ccccc12)C(=O)N[C@@H](CCCCN)C(=O)N[C@@H](Cc1c[nH]cn1)C(=O)N[C@@H](CC(N)=O)C(=O)N[C@H](C(=O)N[C@H](C(=O)N[C@@H](CCC(N)=O)C(=O)O)[C@@H](C)O)[C@@H](C)CC)C(C)C)[C@@H](C)CC` [GIP 1–42, reference compound], the “% Intact peptide remaining after time (hours)” value (“% Intact peptide remaining” below) in data set [1] (pig, 0 h) was determined as 100%. Also, the “% Intact peptide remaining” value in data set [1] (pig, 2 h) worked out at 52±3%. Further, the “% Intact peptide remaining” value in data set [1] (pig, 8 h) is “entirely degraded”. Besides, the “insulin secretion compared to control” value with BRIN-BD11 cells is “dose-dependently stimulated insulin secretion”. Besides, the “overall insulinotropic response compared with glucose alone” value in the data set with ob/ob mice [2] (25 nmoles/kg i.p. with glucose) is “significantly elevated the overall insulinotropic response”. Further, in the data set on ob/ob mice [2], the “overall glucose excursion (glucose AUC) compared to glucose alone” value is “failed to reach significance”; the “AUC glucose and insulin in dose-response study” value is listed as “did not significantly affect”. Also, in the data set on ob/ob mice [3] (12.5 nmoles/kg/day), the body weight result is reported as “no effect”, the food intake result is recorded as “no effect” and the non-fasting plasma insulin result is reported as “unchanged”. Moreover, the non-fasting plasma glucose result in the data set with ob/ob mice [3] (12.5 nmoles/kg/day, at 14 days) is given as “unchanged”. Also, the pancreatic weight result in the data set on ob/ob mice [3] (14 days treatment) is listed as “did not affect pancreatic weight”. For the same molecule, in the data set on ob/ob mice [3], the “plasma insulin response to glucose (AUC)” value is “had no effect”, the glucose tolerance result is reported as “had no effect” and the insulin sensitivity entry is listed as “did not affect the characteristic insulin resistance”.
As to `CCCCCCCCCCCCCCCC(=O)NCCCC[C@H](NC(=O)[C@H](Cc1c[nH]c2ccccc12)NC(=O)[C@H](CC(=O)O)NC(=O)[C@H](CC(N)=O)NC(=O)[C@H](CCCCN)NC(=O)[C@H](CCCCN)NC(=O)CNC(=O)[C@H](CCCCN)NC(=O)[C@H](CCC(N)=O)NC(=O)[C@H](C)NC(=O)[C@H](CC(C)C)NC(=O)[C@H](CC(C)C)NC(=O)[C@H](Cc1c[nH]c2ccccc12)NC(=O)[C@H](CC(N)=O)NC(=O)[C@@H](NC(=O)[C@H](Cc1ccccc1)NC(=O)[C@H](CC(=O)O)NC(=O)[C@H](CCC(N)=O)NC(=O)[C@H](CCC(N)=O)NC(=O)[C@H](Cc1c[nH]cn1)NC(=O)[C@@H](NC(=O)[C@H](CCCCN)NC(=O)[C@H](CC(=O)O)NC(=O)[C@H](CCSC)NC(=O)[C@H](C)NC(=O)[C@@H](NC(=O)[C@H](CO)NC(=O)[C@H](Cc1ccc(O)cc1)NC(=O)[C@H](CC(=O)O)NC(=O)[C@H](CO)NC(=O)[C@@H](NC(=O)[C@H](Cc1ccccc1)NC(=O)[C@@H](NC(=O)CNC(=O)[C@H](CCC(=O)O)NC(=O)[C@H](C)NC(=O)[C@H](Cc1ccc(O)cc1)NC(C)=O)[C@@H](C)O)[C@@H](C)CC)[C@@H](C)CC)[C@@H](C)CC)C(C)C)C(=O)N[C@@H](Cc1c[nH]cn1)C(=O)N[C@@H](CC(N)=O)C(=O)N[C@H](C(=O)N[C@H](C(=O)N[C@@H](CCC(N)=O)C(=O)O)[C@@H](C)O)[C@@H](C)CC` [N-AcGIP(LysPAL^37)], the “% Intact peptide remaining” value in data set [1] (incubation with DPP IV, 0 h) stood at 100%. Also, the “% Intact peptide remaining” value in data set [1] (incubation with DPP IV, 24 h) is “remained completely intact”. Further, the “insulin secretion compared to control” value in the data set with BRIN-BD11 cells is listed as “significantly stimulated glucose-induced insulin secretion”. In the data set with ob/ob mice [2] (6.25 nmoles/kg with glucose), the “antihyperglycaemic effect compared to glucose alone” value was “highly significant antihyperglycaemic properties” and the “insulin response (AUC) compared to glucose alone” value turned out to be 2.0 fold. Also, in the data set on ob/ob mice [2] (25 nmoles/kg i.p. with glucose), the “enhancement of overall glucose-mediated insulin release (AUC) compared to native GIP” value is on record as 2.3 fold, the “overall glucose excursion compared to native GIP” value is “decreased the overall glucose excursion” and the “potency at stimulating insulin secretion relative to N-AcGIP(LysPAL^16)” value is 1.5 fold. In the data set with ob/ob mice [2], the “overall glucose excursion (glucose AUC) compared to glucose alone” value is reported as “significantly lowered glucose AUC”; the “AUC glucose and insulin in dose-response study” value was “prominent dose-dependent antihyperglycaemic and insulinotropic actions at all doses administered”. In addition, in the data set with ob/ob mice [3] (12.5 nmoles/kg/day), the body weight entry was “no effect”, the food intake result is “no effect” and the non-fasting plasma insulin entry is given as “tendency towards elevated insulin concentrations”. In the data set with ob/ob mice [3] (12.5 nmoles/kg/day, at 14 days), the glycated hemoglobin result is recorded as “significantly (p<0.01) decreased” and the non-fasting plasma glucose entry was “significantly (p<0.05) lowered”. In the data set on ob/ob mice [3] (14 days treatment), the pancreatic insulin content entry is given as “significantly increased” and the pancreatic weight result is “did not affect pancreatic weight”. Besides, in the data set with ob/ob mice [3] (acute 25 nmoles/kg with glucose after 14 days treatment), the GIP receptor desensitization entry is recorded as “lack of GIP receptor desensitization”. Moreover, in the data set on ob/ob mice [3], the “plasma insulin response to glucose (AUC)” value is “greater (p<0.01) overall AUC insulin response”, the glucose tolerance entry is given as “significant improvement in glucose tolerance” and the insulin sensitivity result is reported as “significant improvement of insulin sensitivity”.

For the origin of these results see patent US7875587B2, “Peptide analogues of GIP for treatment of diabetes, insulin resistance and obesity” (UUTECH Limited, priority 2004, dated 2011).
